# Measurements as given in US9216954B2, “Serine racemase inhibitor” (National University Corporation University of Toyama, priority 2012, dated 2015).
row,Structure (SMILES),melting point [°C]
1,"O=C(CCc1ccccc1)NNC(=S)NC(=O)Cc1ccccc1 [LW-30, 2-Phenyl-N—[N′-(3-phenyl-propionyl)-hydrazinocarbothioyl]-acetamide]",88 to 90
2,"O=C(Cc1ccc(F)cc1)NNC(=S)NC(=O)Cc1ccc(F)cc1 [LW-32, 2-(4-Fluoro-phenyl)-N-{N′-[2-(4-fluoro-phenyl)-acetyl]-hydrazinocarbothioyl}-acetamide]",178 to 179
3,"O=C(Cc1ccc(F)cc1)NNC(=S)NC(=O)Cc1c(F)cccc1F [LW-33, 2-(2,6-Difluoro-phenyl)-N-{N′-[2-(4-fluoro-phenyl)-acetyl]-hydrazinocarbothioyl}-acetamide]",186 to 187
4,"COc1ccc(NC(=O)CNC(=O)COc2ccc(Cl)cc2)c(C)c1 [MM-2, 2-(4-Chloro-phenoxy)-N-[(4-methoxy-2-methyl-phenylcarbamoyl)-methyl]-acetamide]",170 to 171
5,"O=C(COc1ccc(Cl)cc1)NCC(=O)Nc1ccc(I)cc1 [MM-4, 2-(4-Chloro-phenoxy)-N-[(4-iodo-phenylcarbamoyl)-methyl]-acetamide]",205 to 206
6,"O=C(COc1ccc(Br)cc1)NCC(=O)Nc1ccc(I)cc1 [MM-5, 2-(4-Bromo-phenoxy)-N-[(4-iodo-phenylcarbamoyl)-methyl]acetamide]",211 to 212
7,"COc1ccc(NC(=O)CNC(=O)COc2ccc(F)cc2)c(C)c1 [MM-6, 2-(4-Fluoro-phenoxy)-N-[(4-methoxy-2-methyl-phenylcarbamoyl)-methyl]-acetamide]",169 to 170
8,"O=C(COc1ccc(F)cc1)NCC(=O)Nc1ccc(I)cc1 [MM-7, 2-(4-Fluoro-phenoxy)-N-[(4-iodo-phenylcarbamoyl)-methyl]-acetamide]",190 to 191
9,"O=C(COc1ccc(Br)cc1)NCC(=O)Nc1ccc(F)cc1 [MM-8, 2-(4-Bromo-phenoxy)-N-[(4-fluoro-phenylcarbamoyl)-methyl]-acetamide]",213 to 214
10,"O=C(COc1ccc(F)cc1)NCC(=O)Nc1ccc(F)cc1 [MM-9, 2-(4-Fluoro-phenoxy)-N-[(4-fluoro-phenylcarbamoyl)-methyl]-acetamide]",202 to 203
11,"O=C(COc1ccc(F)cc1)NCC(=O)NC1CCCCC1 [MM-14, N-Cyclohexylcarbamoylmethyl-2-(4-fluoro-phenoxy)-acetamide]",184 to 185
12,"O=C(COc1ccc(Br)cc1)NCC(=O)Nc1c(F)cccc1F [MM-15, 2-(4-Bromo-phenoxy)-N-[(2,6-difluoro-phenylcarbamoyl)-methyl]-acetamide]",173 to 174
13,"O=C(CNC(=O)COc1ccc(Br)cc1)NCc1ccccc1 [MM-16, N-(Benzylcarbamoyl-methyl)-2-(4-bromo-phenoxy)-acetamide]",195 to 196
14,"O=C(CNC(=O)COc1ccc(F)cc1)NCc1ccccc1 [MM-17, N-(Benzylcarbamoyl-methyl)-2-(4-fluoro-phenoxy)-acetamide]",165 to 166
15,"COc1ccc(OCC(=O)NCC(=O)Nc2ccc(OC)cc2C)cc1 [MM-18, N-[(4-Methoxy-2-methyl-phenylcarbamoyl)-methyl]-2-(4-methoxy-phenoxy)-acetamide]",143 to 144
16,"O=C(COc1ccc(Cl)cc1)NCC(=O)Nc1c(F)cccc1F [MM-20, 2-(4-Chloro-phenoxy)-N-[(2,6-difluoro-phenylcarbamoyl)-methyl]acetamide]",184 to 185
17,"O=C(COc1ccc(Oc2ccccc2)cc1)NCC(=O)Nc1c(F)cccc1F [MM-21, N-[(2,6-Difluoro-phenylcarbamoyl)-methyl]-2-(4-phenoxy-phenoxy)-acetamide]",164 to 165
18,"Cc1cccc(OCC(=O)NCC(=O)Nc2c(F)cccc2F)c1 [MM-22, N-[(2,6-Difluoro-phenylcarbamoyl)-methyl]-2-m-tolyloxy-acetamide]",161 to 162
19,"COc1ccc(OCC(=O)NCC(=O)Nc2c(F)cccc2F)cc1 [MM-23, N-[(2,6-Difluoro-phenylcarbamoyl)-methyl]-2-(4-methoxy-phenoxy)-acetamide]",164 to 165
20,"O=C(COc1ccc(Br)cc1)NCC(=S)Nc1c(F)cccc1F [MM-25, 2-(4-Bromo-phenoxy)-N-[(2,6-difluoro-phenylthiocarbamoyl)-methyl]-acetamide]",174 to 175
21,"Cc1ccccc1CNC(=O)CNC(=O)COc1ccc(Br)cc1 [MM-27, 2-(4-Bromo-phenoxy)-N-[(2-methyl-benzylcarbamoyl)-methyl]-acetamide]",174 to 175
22,"O=C(CNC(=O)COc1ccc(Br)cc1)NCc1ccc(Br)cc1 [MM-28, N-[(4-Bromo-benzylcarbamoyl)-methyl]-2-(4-bromo-phenoxy)-acetamide]",208 to 209
23,"COc1ccc(OCC(=O)NCC(=O)Nc2cccc(Br)c2)cc1 [MM-31, N-[(3-Bromo-phenylcarbamoyl)-methyl]-2-(4-methoxy-phenoxy)-acetamide]",174 to 175
24,"O=C(COc1ccc(Br)cc1)NCC(=O)Nc1cccc(Cl)c1 [MM-32, 2-(4-Bromo-phenoxy)-N-[(3-chloro-phenylcarbamoyl)-methyl]-acetamide]",205 to 206
25,"O=C(COc1ccc(Br)cc1)NCC(=O)Nc1cccc([N+](=O)[O-])c1 [MM-33, 2-(4-Bromo-phenoxy)-N-[(3-nitro-phenylcarbamoyl)-methyl]-acetamide]",197 to 198
26,"O=C(COc1ccc(O)cc1)NCC(=O)Nc1c(F)cccc1F [MM-35, N-[(2,6-difluorophenylcarbamoyl)methyl]-2-(4-hydroxyphenoxy)acetamide]",197 to 198

# Results, then the molecule that gave them:
row,melting point [°C],Structure (SMILES)
1,174 to 175,"O=C(Cc1c(F)cccc1F)NNC(=S)NC(=O)Cc1ccccc1 [LW-28, N-{N′-[2-(2,6-Difluoro-phenyl)-acetyl]-hydrazinocarbothioyl}-2-phenyl-acetamide]"
2,178 to 179,"O=C(Cc1cc(F)cc(F)c1)NNC(=S)NC(=O)Cc1ccccc1 [LW-29, N-{N′-[2-(3,5-Difluoro-phenyl)-acetyl]-hydrazinocarbothioyl}-2-phenyl-acetamide]"
3,213 to 214,"O=C(/C=C/c1cc(Br)cc(Br)c1)NC(=S)NNC(=O)CCc1ccccc1 [LW-31, 3-(3,5-Dibromo-phenyl)-N—[N′-(3-phenyl-propionyl)-hydrazinocarbothioyl]acrylamide]"
4,132 to 133,"O=C(Cc1ccc(F)cc1)NNC(=S)NC(=O)CC1CCCCC1 [LW-34, 2-Cyclohexyl-N-{N′-[2-(4-fluoro-phenyl)-acetyl]-hydrazinocarbothioyl}-acetamide]"
5,165 to 166,"COc1ccc(NC(=O)CNC(=O)COc2ccccc2)c(C)c1 [MM-1, N-[(4-methoxy-2-methylphenylcarbamoyl)methyl]-2-phenoxyacetamide]"
6,159 to 160,"COc1ccc(NC(=O)CNC(=O)COc2ccc(Br)cc2)c(C)c1 [MM-3, 2-(4-Bromo-phenoxy)-N-[(4-methoxy-2-methyl-phenylcarbamoyl)-methyl]-acetamide]"
7,192 to 193,"O=C(COc1ccc(F)cc1)NCC(=O)Nc1ccc(Br)cc1 [MM-10, N-[(4-Bromo-phenylcarbamoyl)-methyl]-2-(4-fluoro-phenoxy)-acetamide]"
8,190 to 191,"COc1ccc(NC(=O)CNC(=O)COc2ccc(Br)cc2)cc1 [MM-11, 2-(4-Bromo-phenoxy)-N-[(4-methoxy-phenylcarbamoyl)-methyl]acetamide]"
9,185 to 186,"COc1ccc(NC(=O)CNC(=O)COc2ccc(F)cc2)cc1 [MM-12, 2-(4-Fluoro-phenoxy)-N-[(4-methoxy-phenylcarbamoyl)-methyl]-acetamide]"
10,115 to 116,"COc1cccc(OCC(=O)NCC(=O)Nc2ccc(OC)cc2C)c1 [MM-19, N-[(4-Methoxy-2-methyl-phenylcarbamoyl)-methyl]-2-(3-methoxy-phenoxy)-acetamide]"
11,194 to 195,"O=C(COc1ccc(F)cc1)NCC(=O)Nc1c(F)cccc1F [MM-24, N-[(2,6-Difluoro-phenylcarbamoyl)-methyl]-2-(4-fluoro-phenoxy)-acetamide]"
12,160 to 161,"COc1ccc(OCC(=O)NCC(=S)Nc2c(F)cccc2F)cc1 [MM-26, N-[(2,6-Difluoro-phenylthiocarbamoyl)-methyl]-2-(4-methoxy-phenoxy)-acetamide]"
13,179 to 180,"O=C(CNC(=O)COc1ccc(Br)cc1)NCc1ccc(Br)cc1F [MM-29, N-[(4-Bromo-2-fluoro-benzylcarbamoyl)-methyl]-2-(4-bromo-phenoxy)-acetamide]"
14,145 to 146,"O=C(COc1ccc(OCc2ccccc2)cc1)NCC(=O)Nc1c(F)cccc1F [MM-34, 2-(4-Benzyloxy-phenoxy)-N-[(2,6-difluoro-phenylcarbamoyl)-methyl]-acetamide]"
15,192 to 193,"Cc1cccc(OCC(=O)NCC(=O)Nc2ccc(I)cc2)c1 [MM-36, N-[(4-Iodo-phenylcarbamoyl)-methyl]-2-m-tolyloxy-acetamide]"
16,186 to 187,"Cc1cccc(OCC(=O)NCC(=O)Nc2ccc(O)cc2)c1 [MM-37, N-[(4-hydroxyphenylcarbamoyl)methyl]-2-m-tolyloxyacetamide]"
